Source: ChEMBL document CHEMBL4706719, “Androgen Receptor Degradation for Therapeutic Intervention of Prostate Cancer Drug Resistance” (ACS Med Chem Lett, 2021)

These compounds were tested against Androgen receptor (Homo sapiens) (UniProt P10275) (assay: In vivo inhibition of AR in castrated CB17 mouse xenografted with human VCaP cells at 10 mg/kg, po via gavage measured after 16 hrs by ELISA relative to control).
An inhibition of under 50% was found for `CC1(C)[C@H](NC(=O)c2ccc(N3CCC(CN4CCN(c5ccc6c(c5)C(=O)N(C5CCC(=O)NC5=O)C6=O)CC4)CC3)nn2)C(C)(C)[C@H]1Oc1ccc(C#N)c(Cl)c1` (stereo partly specified) in this work.
An inhibition of over 50% was found for `CC1(C)[C@H](NC(=O)c2cnc(N3CCN(CCCOc4ccc5c(c4)C(=O)N(C4CCC(=O)NC4=O)C5=O)CC3)cn2)C(C)(C)[C@H]1Oc1ccc(C#N)c(Cl)c1` (stereo partly specified) in this work.
An inhibition of over 50% was found for `CC1(C)[C@H](NC(=O)c2ccc(N3CCN(CCCCCOc4ccc5c(c4)C(=O)N(C4CCC(=O)NC4=O)C5=O)CC3)nc2)C(C)(C)[C@H]1Oc1ccc(C#N)c(C#N)c1` (stereo partly specified) in this work.
An inhibition of over 50% was found for `CC1(C)[C@H](NC(=O)c2ccc(N3CCN(CCCCCOc4ccc5c(c4)C(=O)N([C@H]4CCC(=O)NC4=O)C5=O)CC3)nc2)C(C)(C)[C@H]1Oc1ccc(C#N)c(Cl)c1` in this work.
An inhibition of under 50% was found for `CC1(C)[C@H](NC(=O)c2cc(F)c(CCOCCCN3CCN(c4ccc5c(c4)C(=O)N(C4CCC(=O)NC4=O)C5=O)CC3)c(F)c2)C(C)(C)[C@H]1Oc1ccc(C#N)c(Cl)c1` (stereo partly specified) in this work.
An inhibition of over 50% was found for `CC1(C)[C@H](NC(=O)c2ccc(N3CCC(CN4CCN(c5cc6c(cc5F)C(=O)N(C5CCC(=O)NC5=O)C6=O)CC4)CC3)c(F)c2)C(C)(C)[C@H]1Oc1ccc(C#N)c(Cl)c1` (stereo partly specified) in this work.
An inhibition of over 50% was found for `CC1(C)[C@H](NC(=O)c2ccc(N3CCC(CN4CCN(c5cc6c(cc5F)C(=O)N(C5CCC(=O)NC5=O)C6=O)CC4)CC3)nn2)C(C)(C)[C@H]1Oc1ccc(C#N)c(Cl)c1` (stereo partly specified) in this work.
An inhibition of over 50% was found for `CC(C)N(CC1CCN(c2ccc(C(=O)N[C@H]3C(C)(C)[C@H](Oc4ccc(C#N)c(Cl)c4)C3(C)C)cc2)CC1)[C@H]1C[C@H](Oc2ccc3c(c2)C(=O)N(C2CCC(=O)NC2=O)C3=O)C1` (stereo partly specified) in this work.
An inhibition of over 50% was found for `CC1(C)[C@H](NC(=O)c2ccc(N3CCC(CN4CCN(c5ccc6c(c5F)C(=O)N(C5CCC(=O)NC5=O)C6=O)CC4)CC3)cc2)C(C)(C)[C@H]1Oc1ccc(C#N)c(Cl)c1` (stereo partly specified) in this work.
An inhibition of over 50% was found for `CC1(C)[C@H](NC(=O)c2ccc(CCN3CCN(c4ccc5c(c4)C(=O)N(C4CCC(=O)NC4=O)C5=O)CC3)cc2)C(C)(C)[C@H]1Oc1ccc(C#N)c(Cl)c1` (stereo partly specified) in this work.
An inhibition of over 50% was found for `CC1(C)[C@H](NC(=O)c2ccc(N3CCN(CCCOc4ccc5c(c4)C(=O)N(C4CCC(=O)NC4=O)C5=O)CC3)cc2)C(C)(C)[C@H]1Oc1ccc(C#N)c(Cl)c1` (stereo partly specified) in this work.
